From ChEMBL document CHEMBL1140032, “Furoxan-, alkylnitrate-derivatives and related compounds as anti-trypanosomatid agents: mechanism of action studies” (2008)
Activity calls are given as the source filed them. The rule behind the calls is not given here.

Key:
Trypanosoma cruzi [1] = assay: Antitrypanosomal activity against Trypanosoma cruzi Y assessed as parasite viability after 5 days by MTT assay; type: functional; details: 120 h, read-out: ID50 (the source's name)
Trypanosoma cruzi [2] = assay: Antitrypanosomal activity against Trypanosoma cruzi Tulahuen 2 assessed as inhibition of epimastigotes growth after 5 days by MTT assay relative to control; type: functional; details: Tulahuen 2, 120 h, read-out: ID50 (the source's name)
Leishmania braziliensis = assay: Antileishmanial activity against Leishmania braziliensis MHOM/BR/00/LTB300 assessed as parasite viability after 5 days by MTT assay; type: functional; details: 120 h, read-out: ID50 (the source's name)
[3] = Inhibition of nitric oxide production by Griess assay; type: functional; design: concentration or dose not given beside the values; details: dose or concentration not given here
Leishmania pifanoi [4] = assay: Antileishmanial activity against Leishmania pifanoi MHOM/VE/57/LV135 assessed as parasite viability after 5 days by MTT assay; type: functional; details: 120 h, read-out: ID50 (the source's name)
Trypanosoma cruzi [5] = assay: Antitrypanosomal activity against Trypanosoma cruzi CL Brener assessed as parasite viability after 5 days by MTT assay; type: functional; details: 120 h, read-out: ID50 (the source's name)
Trypanosoma cruzi [6] = assay: Antitrypanosomal activity against Trypanosoma cruzi CL Brener in Vero cells assessed as infection; type: functional
Trypanosoma cruzi [7] = assay: Antitrypanosomal activity against Trypanosoma cruzi CL Brener clone assessed as lysis of trypomastigotes at 10 uM after 26 hrs relative to control; type: functional
Trypanosoma cruzi [8] = assay: Antitrypanosomal activity against Trypanosoma cruzi CL Brener in Vero cells assessed as endocytic index at 2.5 uM; type: functional
Trypanosoma cruzi [9] = assay: Antitrypanosomal activity against Trypanosoma cruzi CL Brener assessed as lysis of trypomastigotes at 25 uM after 19 hrs relative to control; type: functional
Trypanosoma cruzi [10] = assay: Antitrypanosomal activity against Trypanosoma cruzi CL Brener assessed as lysis of trypomastigotes at 50 uM after 19 hrs relative to control; type: functional
Trypanosoma cruzi [11] = assay: Antitrypanosomal activity against Trypanosoma cruzi CL Brener clone assessed as lysis of trypomastigotes at 10 uM after 3 hrs relative to control; type: functional
Trypanosoma cruzi [12] = assay: Antitrypanosomal activity against Trypanosoma cruzi CL Brener assessed as lysis of trypomastigotes at 10 uM after 2 hrs relative to control; type: functional
Trypanosoma cruzi [13] = assay: Inhibition of Trypanosoma cruzi Y mitochondrial dehydrogenase activity by MTT assay relative to control
Trypanosoma cruzi [14] = assay: Antitrypanosomal activity against Trypanosoma cruzi CL Brener in Vero cells assessed as number of amastigote infected; type: functional
Leishmania pifanoi [15] = assay: Antileishmanial activity against Leishmania pifanoi MHOM/VE/57/LV135 at 5.0 uM after 5 days assessed as parasite viability by MTT assay; type: functional; details: 120 h, read-out: GI
Trypanosoma cruzi [16] = assay: Antitrypanosomal activity against Trypanosoma cruzi CL Brener assessed as lysis of trypomastigotes at 50 uM after 2 hrs relative to control; type: functional
Trypanosoma cruzi [17] = assay: Antitrypanosomal activity against Trypanosoma cruzi CL Brener assessed as lysis of trypomastigotes at 25 uM after 2 hrs relative to control; type: functional

Row | Compound | IC50 (Trypanosoma cruzi [1]) [µM] | IC50 (Trypanosoma cruzi [2]) [µM] | IC50 (Leishmania braziliensis) [µM] | inhibition [3] [%] | IC50 (Leishmania pifanoi [4]) [µM] | IC50 (Trypanosoma cruzi [5]) [µM] | Activity (Trypanosoma cruzi [6]) [%] | Activity (Trypanosoma cruzi [7]) [%] | Activity (Trypanosoma cruzi [8]) | Activity (Trypanosoma cruzi [9]) [%] | Activity (Trypanosoma cruzi [10]) [%] | Activity (Trypanosoma cruzi [11]) [%] | Activity (Trypanosoma cruzi [12]) [%] | Activity (Trypanosoma cruzi [13]) | Activity (Trypanosoma cruzi [14]) | inhibition of growth at 5 µM (Leishmania pifanoi [15]) [%] | Activity (Trypanosoma cruzi [16]) [%] | Activity (Trypanosoma cruzi [17]) [%]
1 | CCSCCS(=O)(=O)c1c(-c2ccccc2)no[n+]1[O-] | 3.9 | 7.5 | 4 | 10 | 4.6 | 0.9 |  |  |  |  |  |  |  |  |  |  |  | 
2 | O=S(=O)(c1ccccc1)c1no[n+]([O-])c1-c1ccccc1 | > 50 | 7.5 | 20.2 | < 1 | 20.5 | 9.1 |  |  |  |  |  |  |  |  |  |  |  | 
3 | NC(=O)CS(=O)(=O)c1c(-c2ccccc2)no[n+]1[O-] | 6 | 10 | 14.3 |  | > 50 | 3.7 | 6.3 | 100 | 10.1 | 100 | 100 | 5 | 0 | Active | 1.6 |  |  | 
4 | O=S(=O)(c1ccccc1)c1c(-c2ccccc2)no[n+]1[O-] | 4.3 | 5 | 1.6 | 10.3 | 3.8 | 4.2 |  |  |  |  |  |  |  |  |  |  |  | 
5 | COc1ccccc1NCCS(=O)(=O)c1no[n+]([O-])c1-c1ccccc1 | 26.2 | 8 | 9.9 | < 1 | 33.8 | 7.2 |  |  |  |  |  |  |  |  |  |  |  | 
6 | COc1ccccc1NCCS(=O)(=O)c1c(-c2ccccc2)no[n+]1[O-] | 9.2 | 7.5 | 13.7 | 20.8 | 6.5 | 5 |  |  |  |  |  |  |  |  |  |  |  | 
7 | CCSCCS(=O)(=O)c1no[n+]([O-])c1-c1ccccc1 | 6 | 5 | > 50 | < 1 | > 50 | 37.1 |  |  |  |  |  |  |  |  |  |  |  | 
8 | CCOCCS(=O)(=O)c1no[n+]([O-])c1-c1ccccc1 | > 50 | 17 | > 50 | < 1 | > 50 | > 50 |  |  |  |  |  |  |  |  |  |  |  | 
9 | CCCCCCCCCCCCCCCCOP(=O)([O-])OCC[N+](C)(C)C [MILTEFOSINE] |  |  | 9 |  |  |  |  |  |  |  |  |  |  |  |  | 85.5 |  | 
10 | CCOCCS(=O)(=O)c1c(-c2ccccc2)no[n+]1[O-] | 3.4 | 10 | 4.1 | 10 | 4.2 | 1.5 |  |  |  | 100 | 100 |  |  | Active |  |  | 68 | 
11 | C=CS(=O)(=O)c1nonc1-c1ccccc1 | 23.5 | 6.5 | 8 |  | 20.4 | 22.2 |  |  |  |  |  |  |  |  |  |  |  | 
12 | C=CS(=O)(=O)c1c(-c2ccccc2)no[n+]1[O-] | 6.8 | 6.5 | 10 |  | 26.7 | 2.6 |  |  |  | 100 | 100 |  |  | Active |  |  | 62 | 33
13 | C=CS(=O)(=O)c1no[n+]([O-])c1-c1ccccc1 | 11.1 | 5.5 | 39.1 |  | > 50 | 8.2 |  |  |  |  |  |  |  |  |  |  |  | 
